Experimental data taken from patent US20240199546A1, “INHIBITORS OF SOLUTE CARRIER FAMILY 6A MEMBER 19 (SLC6A19) AND METHODS OF USE THEREOF” (Maze Therapeutics, Inc., priority 2022, published 2024).

Key:
human SLC6A19 and TMEM27 [1] = target: T1, human SLC6A19 and TMEM27 (Homo sapiens, UniProt Q695T7); assay: Radiolabelled (3H) leucine uptake in CHO cells with doxycycline-inducible expression of human SLC6A19 and TMEM27 (Example B-1); format: cell-based; conditions: CHO cells with doxycycline-inducible expression of human SLC6A19 and TMEM27, read-out: SLC6A19_Radioligand Uptake Assay IC50
T1 construct: expressed in transfected cells
T1 sequence (Q695T7 1-634): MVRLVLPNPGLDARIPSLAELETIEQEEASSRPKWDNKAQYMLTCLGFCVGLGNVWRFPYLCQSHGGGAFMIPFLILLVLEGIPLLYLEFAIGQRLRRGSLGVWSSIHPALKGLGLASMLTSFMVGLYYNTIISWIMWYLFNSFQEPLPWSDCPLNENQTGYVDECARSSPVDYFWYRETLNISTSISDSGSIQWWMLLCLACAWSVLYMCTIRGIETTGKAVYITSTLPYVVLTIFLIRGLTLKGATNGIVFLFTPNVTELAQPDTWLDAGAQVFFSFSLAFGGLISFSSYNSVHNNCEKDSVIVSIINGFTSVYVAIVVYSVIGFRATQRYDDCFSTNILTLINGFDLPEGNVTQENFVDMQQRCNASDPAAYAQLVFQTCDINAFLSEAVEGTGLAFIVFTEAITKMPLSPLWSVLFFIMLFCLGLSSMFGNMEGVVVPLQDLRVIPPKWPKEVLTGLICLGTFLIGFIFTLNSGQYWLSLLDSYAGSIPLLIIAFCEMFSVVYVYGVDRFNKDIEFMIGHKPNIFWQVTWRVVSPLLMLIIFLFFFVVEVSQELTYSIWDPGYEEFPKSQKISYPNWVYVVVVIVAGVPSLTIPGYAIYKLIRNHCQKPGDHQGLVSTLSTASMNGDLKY
T1 sequence (Q9HBJ8 15-222 partner): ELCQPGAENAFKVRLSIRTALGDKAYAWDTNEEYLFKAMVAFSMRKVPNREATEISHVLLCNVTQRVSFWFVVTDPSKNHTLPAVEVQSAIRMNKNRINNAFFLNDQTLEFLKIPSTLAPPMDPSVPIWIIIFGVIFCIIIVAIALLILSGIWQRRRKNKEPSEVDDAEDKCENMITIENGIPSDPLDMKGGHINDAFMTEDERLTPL
In short: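 CHO cells were induced with doxycycline for 18 h at 37 °C, washed in HBSS, then exposed to compounds for 1 h: 8-point, 3-fold dilutions in duplicate, 0.5% DMSO final. Uptake measured by scintillation counting after 2 h shaking. Activity normalized with positive control as 0% and DMSO as 100%.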

human SLC6A19 and TMEM27 [2] = target: T1, human SLC6A19 and TMEM27; assay: 13C6,15N-isoleucine uptake in CHO cells with doxycycline-inducible expression of human SLC6A19 and TMEM27, RapidFire mass spectrometry (Example B-2); format: cell-based; conditions: read-out: SLC6A19_RapidFire Uptake Assay IC50
In short: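 CHO cells induced overnight with doxycycline to express human SLC6A19 plus TMEM27; 20 min preincubation with compound (10-point 2-fold series, duplicate) at 37 °C in HEPES buffer pH 7.2, then 20 min with 13C6,15N-isoleucine. Intracellular label quantified by RapidFire MS against 13C-leucine standard; positive control defined 100% inhibition.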

| Compound | IC50 (human SLC6A19 and TMEM27 [1]) | IC50 (human SLC6A19 and TMEM27 [2]) |
| --- | --- | --- |
| CC1(C(=O)NCc2cc3cc(Cl)c(OCc4ccon4)cc3[nH]2)CC1 [Compound 46, N-((5-chloro-6-(isoxazol-3-ylmethoxy)-1H-indol-2-yl)methyl)-1-methylcyclopropane-1-carboxamide] | 70 nM | 61 nM |
| O=C(NCc1cc2cc(Cl)c(CCc3ccon3)cc2[nH]1)N1CCCC1 [Compound 412, N-((5-chloro-6-(2-(isoxazol-3-yl)ethyl)-1H-indol-2-yl)methyl)pyrrolidine-1-carboxamide] | 289 nM | 154 nM |
| Cc1cc2cc(CNC(=O)N3CCCC3)[nH]c2cc1OCc1ccon1 [Compound 533, N-((6-(isoxazol-3-ylmethoxy)-5-methyl-1H-indol-2-yl)methyl)pyrrolidine-1-carboxamide] | 332 nM | 330 nM |
| CC(C)(C)C(=O)NCc1cc2cc(Cl)c(OCc3cscn3)cc2[nH]1 [Compound 432, N-((5-chloro-6-(thiazol-4-ylmethoxy)-1H-indol-2-yl)methyl)pivalamide] | 384 nM | 253 nM |
| CC1(C(=O)NCc2cc3cc(Cl)c(OCc4ncc(Cl)s4)cc3[nH]2)CC1 [Compound 323, N-((5-chloro-6-((5-chlorothiazol-2-yl)methoxy)-1H-indol-2-yl)methyl)-1-methylcyclopropane-1-carboxamide] | 1810 nM | 531 nM |
| CC(C)C(=O)NCc1cc2cc(F)c(OCc3cocn3)cc2[nH]1 [Compound 501, N-((5-fluoro-6-(oxazol-4-ylmethoxy)-1H-indol-2-yl)methyl)isobutyramide] | 312 nM | 1300 nM |
| CC1(C(=O)NCc2cc3cc(Cl)c(CNc4ccon4)cc3[nH]2)CC1 [Compound 608, N-((5-chloro-6-((isoxazol-3-ylamino)methyl)-1H-indol-2-yl)methyl)-1-methylcyclopropane-1-carboxamide] | 304 nM | 457 nM |
| CC(=O)NCc1cc2cc(F)c(OCc3cnn(C)n3)cc2[nH]1 [Compound 222, N-((5-fluoro-6-((2-methyl-2H-1,2,3-triazol-4-yl)methoxy)-1H-indol-2-yl)methyl)acetamide] | 3170 nM | 6610 nM |
| CC1(C(=O)NCc2cc3ccc(OCCc4ccon4)cc3[nH]2)CC1 [Compound 190, N-((6-(2-(isoxazol-3-yl)ethoxy)-1H-indol-2-yl)methyl)-1-methylcyclopropane-1-carboxamide] | 185 nM | 294 nM |
| Cn1ncc(COc2cc3[nH]c(CNC(=O)C4CC4)cc3cc2F)n1 [Compound 433, N-((5-fluoro-6-((2-methyl-2H-1,2,3-triazol-4-yl)methoxy)-1H-indol-2-yl)methyl)cyclopropanecarboxamide] | 566 nM | 1500 nM |
| CC1(C(=O)NCc2cc3cc(Cl)c(OCc4cnsc4)cc3[nH]2)CC1 [Compound 69, N-((5-chloro-6-(isothiazol-4-ylmethoxy)-1H-indol-2-yl)methyl)-1-methylcyclopropane-1-carboxamide] | 148 nM | 78 nM |
| Cc1cc2c(Cl)c(CNC(=O)N3CCC3)[nH]c2cc1OCc1cscn1 [Compound 475, N-((3-chloro-5-methyl-6-(thiazol-4-ylmethoxy)-1H-indol-2-yl)methyl)azetidine-1-carboxamide] | 432 nM | 138 nM |
| O=C(NCc1cc2cc(F)c(OCc3cscn3)cc2[nH]1)C1CC1 [Compound 136, N-((5-fluoro-6-(thiazol-4-ylmethoxy)-1H-indol-2-yl)methyl)cyclopropanecarboxamide] | 83 nM | 38 nM |
| CC1(C(=O)NCc2cc3cc(C(F)(F)F)c(OCc4cscn4)cc3[nH]2)CC1 [Compound 60, 1-methyl-N-((6-(thiazol-4-ylmethoxy)-5-(trifluoromethyl)-1H-indol-2-yl)methyl)cyclopropane-1-carboxamide] | 254 nM | 71 nM |
| CNC(=O)NCc1cc2cc(Cl)c(OCc3cc(C)no3)cc2[nH]1 [Compound 211, 1-((5-chloro-6-((3-methylisoxazol-5-yl)methoxy)-1H-indol-2-yl)methyl)-3-methylurea] | 87.7 nM | 38.1 nM |
| CC1(C(=O)NCc2cc3cc(Cl)c(OCCc4cscn4)cc3[nH]2)CC1 [Compound 67, N-((5-chloro-6-(2-(thiazol-4-yl)ethoxy)-1H-indol-2-yl)methyl)-1-methylcyclopropane-1-carboxamide] | 169 nM | 117 nM |
| O=C(NCc1cc2cc(Cl)c(OCc3cscn3)cc2[nH]1)N1CCC1 [Compound 81, N-((5-chloro-6-(thiazol-4-ylmethoxy)-1H-indol-2-yl)methyl)azetidine-1-carboxamide] | 150 nM | 166 nM |
| CC1(C(=O)NCc2cc3cc(Cl)c(OCC4CCC4)cc3[nH]2)CC1 [Compound 634, N-((5-chloro-6-(cyclobutylmethoxy)-1H-indol-2-y1)methyl)-1-methylcyclopropane-1-carboxamide] | 404 nM | 168 nM |
| CC1(C(=O)NCc2cc3cc(Cl)c(OCc4cscn4)cc3[nH]2)CC1 [Compound 184, N-((5-chloro-6-(thiazol-4-ylmethoxy)-1H-indol-2-yl)methyl)-1-methylcyclopropane-1-carboxamide] | 144 nM | 59 nM |
| O=C(NCc1cc2cc(OC(F)(F)F)c(CCc3cscn3)cc2[nH]1)N1CCCC1 [Compound 419, N-((6-(2-(thiazol-4-yl)ethyl)-5-(trifluoromethoxy)-1H-indol-2-yl)methyl)pyrrolidine-1-carboxamide] | 435 nM | 159 nM |
| CC1(C(=O)NCc2cc3cc(Cl)c(OCc4ccon4)c(Cl)c3[nH]2)CC1 [Compound 346, N-((5,7-dichloro-6-(isoxazol-3-ylmethoxy)-1H-indol-2-yl)methyl)-1-methylcyclopropane-1-carboxamide] | > 9540 nM | > 50000 nM |
| O=C(NCc1cc2cc(C(F)(F)F)c(OCc3cscn3)cc2[nH]1)N1CCCC1 [Compound 479, N-((6-(thiazol-4-ylmethoxy)-5-(trifluoromethyl)-1H-indol-2-yl)methyl)pyrrolidine-1-carboxamide] | 1670 nM | 545 nM |
| CC1(C(=O)NCc2cc3cc(Cl)c(OCc4cscn4)c(F)c3[nH]2)CC1 [Compound 18, N-((5-chloro-7-fluoro-6-(thiazol-4-ylmethoxy)-1H-indol-2-yl)methyl)-1-methylcyclopropane-1-carboxamide] | 78 nM | 91 nM |
| Cn1ncc(COc2cc3[nH]c(CNC(=O)N4CCCC4)cc3cc2F)n1 [Compound 410, N-((5-fluoro-6-((2-methyl-2H-1,2,3-triazol-4-yl)methoxy)-1H-indol-2-yl)methyl)pyrrolidine-1-carboxamide] | 386 nM | 578 nM |
| O=C(NCc1cc2cc(OC(F)(F)F)c(OCc3cscn3)cc2[nH]1)N1CCC1 [Compound 421, N-((6-(thiazol-4-ylmethoxy)-5-(trifluoromethoxy)-1H-indol-2-yl)methyl)azetidine-1-carboxamide] | 359 nM | 131 nM |
| CC1(C(=O)NCc2cc3cc(Cl)c(OCc4csc(Cl)c4)cc3[nH]2)CC1 [Compound 324, N-((5-chloro-6-((5-chlorothiophen-3-yl)methoxy)-1H-indol-2-yl)methyl)-1-methylcyclopropane-1-carboxamide] | 1120 nM | 476 nM |
| CC1(C(=O)NCc2cc3ccc(OCc4cc(C(F)F)on4)cc3[nH]2)CC1 [Compound 97, N-((6-((5-(difluoromethyl)isoxazol-3-yl)methoxy)-1H-indol-2-yl)methyl)-1-methylcyclopropane-1-carboxamide] | 421 nM | 909 nM |
| CC1(C(=O)NCc2cc3ccc(OCc4cnsc4)cc3[nH]2)CC1 [Compound 68, N-((6-(isothiazol-4-ylmethoxy)-1H-indol-2-yl)methyl)-1-methylcyclopropane-1-carboxamide] | 119 nM | 117 nM |
| CCC(=O)NCc1cc2cc(F)c(OCc3cscn3)cc2[nH]1 [Compound 126, N-((5-fluoro-6-(thiazol-4-ylmethoxy)-1H-indol-2-yl)methyl)propionamide] | 97 nM | 171 nM |
